Assay results as given in patent publication US6706715B2, “Urea derivatives with antiproteolytic activity” (Aventis Pharma Deutschland GmbH, priority 2001, dated 2004).

Target: T1, factor VIIa/tissue factor (Homo sapiens, UniProt P08709)
T1 construct: human factor VIIa and TF
Test: Factor VIIa (FVIIa) chromogenic assay
Type: biochemical
Conditions: human factor VIIa 5 nM and TF 10 nM; chromogenic substrate S-2288 500 μM; 25° C.; 15 minute preincubation; pH 8.15
Procedure: The ability of the compounds of the formula I to inhibit factor VIIa or other enzymes like factor Xa, thrombin, plasmin, or trypsin can be assessed by determining the concentration of the compound of the formula I that inhibits enzyme activity by 50%, i.e. the IC50 value, which is related to the inhibition constant Ki. Purified enzymes are used in chromogenic assays. The concentration of inhibitor that causes a 50% decrease in the rate of substrate hydrolysis is determined by linear regression after plotting the relative rates of hydrolysis (compared to the uninhibited control) versus the log of the concentration of the compound of formula I. For calculating the inhibition constant Ki, the IC50 value is corrected for competition with substrate using the formula
Ki=IC50/{1+(substrate concentration/Km)}
wherein Km is the Michaelis-Menten constant (Chen and Prusoff, Biochem. Pharmacol. 22 (1973), 3099-3108; I. H. Segal, Enzyme Kinetics, 1975, John Wiley & Sons, New York, 100-125; which are incorporated herein by reference).
a) Factor VIIa (FVIIa) Assay
The inhibitory activity (expressed as inhibition constant Ki(FVIIa)) of the compounds of formula I towards factor VIIa/tissue factor activity was determined using a chromogenic assay essentially as described previously (J. A. Ostrem et al., Biochemistry 37 (1998) 1053-1059 which is incorporated herein by reference). Kinetic assays were conducted at 25° C. in half-area microtiter plates (Costar Corp., Cambridge, Mass.) using a kinetic plate reader (Molecular Devices Spectramax 250). A typical assay consisted of 25 μl human factor VIIa and TF (5 nM and 10 nM, respective final concentration) combined with 40 μl of inhibitor dilutions in 10% DMSO/TBS-PEG buffer (50 mM Tris, 15 mM NaCl, 5 mM CaCl2, 0.05% PEG 8000, pH 8.15). Following a 15 minute preincubation period, the assay was initiated by the addition of 35 μl of the chromogenic substrate S-2288 (D-Ile-Pro-Arg-p-nitroanilide, Pharmacia Hepar Inc., 500 μM final concentration).

T1 sequence (P08709 213-466 limits assumed): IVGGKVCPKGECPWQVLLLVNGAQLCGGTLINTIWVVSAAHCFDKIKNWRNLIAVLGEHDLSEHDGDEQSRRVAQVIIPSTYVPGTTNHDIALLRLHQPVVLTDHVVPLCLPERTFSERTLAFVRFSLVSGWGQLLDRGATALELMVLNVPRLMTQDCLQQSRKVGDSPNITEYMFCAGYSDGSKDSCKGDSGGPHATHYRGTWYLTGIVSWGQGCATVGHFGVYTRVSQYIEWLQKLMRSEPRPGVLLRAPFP
T1 sequence (P08709 61-212 limits assumed): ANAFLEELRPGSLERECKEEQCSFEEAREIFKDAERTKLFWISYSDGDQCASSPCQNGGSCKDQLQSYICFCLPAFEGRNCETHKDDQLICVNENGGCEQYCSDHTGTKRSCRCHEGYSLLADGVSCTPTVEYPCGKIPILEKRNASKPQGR
T1 sequence (P13726 33-295 partner): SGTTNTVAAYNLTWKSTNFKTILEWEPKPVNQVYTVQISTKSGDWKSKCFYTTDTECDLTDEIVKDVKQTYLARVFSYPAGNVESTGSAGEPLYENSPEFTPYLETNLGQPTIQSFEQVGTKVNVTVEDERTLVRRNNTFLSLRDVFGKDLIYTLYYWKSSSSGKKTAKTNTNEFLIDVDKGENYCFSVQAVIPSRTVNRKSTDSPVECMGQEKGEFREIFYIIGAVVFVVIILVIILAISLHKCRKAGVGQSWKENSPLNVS

| Ki | Structure (SMILES) |
| --- | --- |
| 0.7 µM | CC(Nc1ccccc1NC(=O)Nc1ccc(C(=N)N)cc1)c1ccccc1 (stereo not drawn) [Example 2, 4-{3-[2-(1-Phenyl-ethylamino)-phenyl]-ureido}-benzamidin] |
| 0.188 µM | CC(Nc1ccccc1NC(=O)Nc1ccc(C(=N)N)cc1)c1ccc(C(=O)N2CCOCC2)cc1 (stereo not drawn) [Example 5, 4-[3-(2-{1-[4-(morpholine-4-carbonyl)-phenyl]-ethylamino}-phenyl)-ureido]-benzamidine acetate] |
| 0.103 µM | C[C@@H](Nc1ccccc1NC(=O)Nc1ccc(C(=N)N)cc1)c1ccccc1 [Example 15] |
| 44.4 µM | CC(Nc1ccccc1CNC(=O)Nc1ccc(C(=N)N)cc1)c1cccc(C(F)(F)F)c1 (stereo not drawn) [Example 18] |
| 0.051 µM | CC(Nc1ccccc1NC(=O)Nc1ccc(C(=N)N)cc1)c1ccc(C(=O)Nc2cccc(S(C)(=O)=O)c2)cc1 (stereo not drawn) [Example 19] |
| 0.098 µM | CC(Nc1ccccc1NC(=O)Nc1ccc(C(=N)N)cc1)c1ccc(C(=O)NCc2ccc(S(C)(=O)=O)cc2)cc1 (stereo not drawn) [Example 24] |
| 0.282 µM | CC(Nc1ccccc1NC(=O)Nc1ccc(C(=N)N)cc1)c1ccc(C(=O)Nc2csc(-c3ccccc3)c2)cc1 (stereo not drawn) [Example 30] |
| 0.056 µM | CC(Nc1ccccc1NC(=O)Nc1ccc(C(=N)N)cc1)c1ccc(C(=O)NC2CCCCC2)cc1 (stereo not drawn) [Example 37] |
| 0.935 µM | CC(Nc1ccccc1NC(=O)Nc1ccc(C(=N)N)cc1)c1ccc(C(=O)Nc2ccc(C(F)(F)F)cc2)cc1 (stereo not drawn) [Example 39] |
